From ChEMBL document CHEMBL3120139, “Design, synthesis, pharmacological evaluation and computational studies of 1-(biphenyl-4-yl)-2-[4-(substituted phenyl)-piperazin-1-yl]ethanones as potential antipsychotics” (Eur J Med Chem, 2014)

Assays:
[1] = tested on: Mus musculus; test: Induction of catalepsy in albino mouse at 15 mg/kg, ip relative to control; assay type: organism-based; parameters: dose 15 mg/kg, route intraperitoneal; conditions: in vivo
[2] = tested on: Mus musculus; test: Antiserotogenic activity in albino mouse assessed as inhibition of 5HTP-induced head twitches at 15 mg/kg, ip measured for 5 mins at every 5 mins interval for 1 hr relative to control; assay type: functional; conditions: route intraperitoneal
[3] = tested on: Mus musculus; test: Antipsychotic activity in albino mouse assessed as inhibition of apomorphine-induced climbing behaviour at 15 mg/kg, ip measured after 10 mins at 5 mins interval for 30 mins relative to control; assay type: functional; conditions: route intraperitoneal

Structure (SMILES) | Activity [1] [%] | inhibition in vivo at 15 mg/kg [2] [%] | inhibition in vivo at 15 mg/kg [3] [%]
O=C(CN1CCN(c2ccccc2)CC1)c1ccc(-c2ccccc2)cc1 | 34.53 | 28 | 31.9
O=C(CN1CCN(c2ccccc2Cl)CC1)c1ccc(-c2ccccc2)cc1 | 42.31 | 35.2 | 38.2
Cc1ccccc1N1CCN(CC(=O)c2ccc(-c3ccccc3)cc2)CC1 | 35.84 | 26.7 | 38.5
COc1ccccc1N1CCN(CC(=O)c2ccc(-c3ccccc3)cc2)CC1 | 29.43 | 61.3 | 53.4
O=C(CN1CCN(c2cccc(Cl)c2)CC1)c1ccc(-c2ccccc2)cc1 | 31.84 | 32.6 | 29.9
Cc1cccc(N2CCN(CC(=O)c3ccc(-c4ccccc4)cc3)CC2)c1 | 33.82 | 29.6 | 33.6
O=C(CN1CCN(c2cccc(C(F)(F)F)c2)CC1)c1ccc(-c2ccccc2)cc1 | 31.84 | 32.6 | 26.4
O=C(CN1CCN(c2ccc(Cl)cc2)CC1)c1ccc(-c2ccccc2)cc1 | 35.17 | 29.2 | 26.4
O=C(CN1CCN(c2ccc(F)cc2)CC1)c1ccc(-c2ccccc2)cc1 | 30.48 | 24.5 | 23.4
Cc1ccc(N2CCN(CC(=O)c3ccc(-c4ccccc4)cc3)CC2)cc1 | 38.66 | 29.8 | 33.3
COc1ccc(N2CCN(CC(=O)c3ccc(-c4ccccc4)cc3)CC2)cc1 | 59.28 | 36.1 | 32.9
O=C(CN1CCN(c2cccc(Cl)c2Cl)CC1)c1ccc(-c2ccccc2)cc1 | 28.97 | 38.3 | 42.8
Cc1cccc(N2CCN(CC(=O)c3ccc(-c4ccccc4)cc3)CC2)c1C | 29.87 | 35.4 | 40.7
O=C(CN1CCN(c2ccc(Cl)c(Cl)c2)CC1)c1ccc(-c2ccccc2)cc1 | 30.5 | 38.8 | 25.7
O=C1CCc2ccc(OCCCCN3CCN(c4cccc(Cl)c4Cl)CC3)cc2N1 [ARIPIPRAZOLE] | 26.86 | 94.5 | 61.1
